Target: T1, FXR (Homo sapiens, UniProt Q96RI1)
T1 construct: using a full length FXR on a natural response element; expressed in transfected cells
T1 sequence (Q96RI1 1-486): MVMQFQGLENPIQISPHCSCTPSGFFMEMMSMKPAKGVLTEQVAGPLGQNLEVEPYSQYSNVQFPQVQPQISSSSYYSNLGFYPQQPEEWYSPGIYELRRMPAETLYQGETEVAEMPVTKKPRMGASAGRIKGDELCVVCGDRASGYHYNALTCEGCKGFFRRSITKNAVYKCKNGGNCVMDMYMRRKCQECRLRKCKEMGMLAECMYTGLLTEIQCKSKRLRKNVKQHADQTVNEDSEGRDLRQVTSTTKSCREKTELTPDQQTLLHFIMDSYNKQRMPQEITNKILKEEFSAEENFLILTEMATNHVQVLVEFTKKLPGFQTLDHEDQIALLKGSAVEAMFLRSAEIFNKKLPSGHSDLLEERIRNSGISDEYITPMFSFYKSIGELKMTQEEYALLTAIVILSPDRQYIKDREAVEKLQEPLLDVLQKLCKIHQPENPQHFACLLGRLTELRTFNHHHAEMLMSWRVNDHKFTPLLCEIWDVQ
Assay: cell-based FXR transcription assay, FXR responsive promoter linked to luciferase reporter
Conditions: for EC50 / RE^a: cell-based FXR reporter assay; for EC50: determined with Prism 3.0; for RE^a: footnote a not given; for FXR activation, in words: cell-based reporter assay, SAR discussion
From the text: In addition to ensuring that only cell permeable compounds were selected for further optimization, this approach allows for the detection of FXR activation in a natural system (i.e., correct folding of the protein and in the presence of a complete compliment of co-activators and co-repressors).
The feasibility of creating high throughput screens (HTS) for ORs was explored using FXR as a candidate orphan receptor (OR) with a known activator, chenodeoxycholic acid (CDCA) as a ligand. The screen is based on the co-transfection of a full-length receptor with the reporter vector containing a natural hormone response element under a minimal eukaryotic promoter. […] Using this 384-well format, the high throughput screening (HTS) approach to FXR as a candidate OR was employed. […] A central question in the feasibility studies is whether this library is suitable for screening for nuclear receptor ligands. Samples of this library were first reformatted into a 384-well format and then subjected to the FXR cell-based assays described above and assessed for FXR-mediated transcriptional activity. Cells were exposed to approximately 10 μM of sample for 18 hrs prior to washing and luciferase analysis.
EC50 values were determined with Prism 3.0 software via the activity of the subject compound in the previously described cell based assay.

SMILES	EC50	RE^a	FXR activation, in words
COC(=O)/C=C/c1cccc(N(Cc2ccc(/C=C/c3ccc(F)cc3)cc2)C(=O)C(C)C)c1 [Compound 205]	120 nM	1.19	excellent activity
COC(=O)/C=C/c1cccc(N(Cc2ccc(/C=C/c3ccc(F)cc3)cc2)C(=O)NC(C)C)c1 [Compound 206]		0.91	
COC(=O)C=Cc1cccc(N(Cc2ccc(C=Cc3ccccn3)cc2)C(=O)C2CCCCC2)c1 [Compound 207]		0.81	
COC(=O)C=Cc1cccc(N(Cc2ccc(C=Cc3ccccn3)cc2)C(=O)C(C)C)c1 [Compound 208]		0.62	
COC(=O)C=Cc1cccc(N(Cc2ccc(C=Cc3ccccn3)cc2)C(=O)NC(C)C)c1 [Compound 209]		0.68	
COC(=O)C=Cc1cccc(N(Cc2ccc(C=Cc3scnc3C)cc2)C(=O)C2CCCCC2)c1 [Compound 210]		0.53	
COC(=O)C=Cc1cccc(N(Cc2ccc(C=Cc3scnc3C)cc2)C(=O)C(C)C)c1 [Compound 211]		0.32	
COC(=O)C=Cc1cccc(N(Cc2ccc(C=Cc3scnc3C)cc2)C(=O)NC(C)C)c1 [Compound 212]		0.42	
COC(=O)/C=C/c1cccc(N(Cc2ccc(-c3ccc(F)c(F)c3)cc2)C(=O)C2CCCCC2)c1 [Compound 213]		1.70	excellent activity
COC(=O)/C=C/c1cccc(N(Cc2ccc(-c3ccc(F)c(F)c3)cc2)C(=O)C(C)C)c1 [Compound 214]		1.15	
COC(=O)/C=C/c1cccc(N(Cc2ccc(-c3ccc(F)c(F)c3)cc2)C(=O)NC(C)C)c1 [Compound 215]		0.23	
COC(=O)/C=C/c1cccc(N(Cc2ccc(-c3ccc(SC)cc3)cc2)C(=O)C(C)C)c1 [Compound 216]		0.98	excellent activity
COC(=O)/C=C/c1cccc(N(Cc2ccc(-c3ccc(SC)cc3)cc2)C(=O)NC(C)C)c1 [Compound 217]		0.23	
COC(=O)/C=C/c1cccc(N(Cc2ccc(-c3ccccc3OC)cc2)C(=O)C2CCCCC2)c1 [Compound 218]	359 nM	0.49	
COC(=O)/C=C/c1cccc(N(Cc2ccc(-c3ccccc3OC)cc2)C(=O)C(C)C)c1 [Compound 219]		0.28	
COC(=O)/C=C/c1cccc(N(Cc2ccc(-c3ccccc3OC)cc2)C(=O)NC(C)C)c1 [Compound 220]		0.09	
COC(=O)/C=C/c1cccc(N(Cc2ccc(-c3cc(Cl)cc(Cl)c3)cc2)C(=O)C(C)C)c1 [Compound 221]	661 nM	0.54	
COC(=O)/C=C/c1cccc(N(Cc2ccc(-c3cc(Cl)cc(Cl)c3)cc2)C(=O)NC(C)C)c1 [Compound 222]	< 10000 nM	0.10	
COC(=O)/C=C/c1cccc(N(Cc2ccc(-c3cccc(OC)c3)cc2)C(=O)C2CCCCC2)c1 [Compound 223]		1.51	
COC(=O)/C=C/c1cccc(N(Cc2ccc(-c3cccc(OC)c3)cc2)C(=O)C(C)C)c1 [Compound 224]		1.28	excellent activity
COC(=O)/C=C/c1cccc(N(Cc2ccc(-c3cccc(OC)c3)cc2)C(=O)NC(C)C)c1 [Compound 225]		0.41	
CCOc1cccc(-c2ccc(CN(C(=O)C3CCCCC3)c3cccc(/C=C/C(=O)OC)c3)cc2)c1 [Compound 226]		1.37	
CCOc1cccc(-c2ccc(CN(C(=O)C(C)C)c3cccc(/C=C/C(=O)OC)c3)cc2)c1 [Compound 227]		1.03	
CCOc1cccc(-c2ccc(CN(C(=O)NC(C)C)c3cccc(/C=C/C(=O)OC)c3)cc2)c1 [Compound 228]		0.33	
COC(=O)/C=C/c1cccc(N(Cc2ccc(-c3ccc(OC)cc3)cc2)C(=O)C2CCCCC2)c1 [Compound 229]		1.71	excellent activity
COC(=O)/C=C/c1cccc(N(Cc2ccc(-c3ccc(OC)cc3)cc2)C(=O)C(C)C)c1 [Compound 230]		1.21	excellent activity
COC(=O)/C=C/c1cccc(N(Cc2ccc(-c3ccc(OC)cc3)cc2)C(=O)NC(C)C)c1 [Compound 231]		1.18	
COC(=O)/C=C/c1cccc(N(Cc2ccc(-c3cccc(Cl)c3)cc2)C(=O)C2CCCCC2)c1 [Compound 232]		1.56	excellent activity
COC(=O)/C=C/c1cccc(N(Cc2ccc(-c3cccc(Cl)c3)cc2)C(=O)C(C)C)c1 [Compound 233]	77 nM	1.52	excellent activity

Other lines, results leading:

EC50	RE^a	FXR activation, in words	SMILES
	0.49		COC(=O)/C=C/c1cccc(N(Cc2ccc(-c3cccc(Cl)c3)cc2)C(=O)NC(C)C)c1 [Compound 234]
	1.38	excellent activity	COC(=O)/C=C/c1cccc(N(Cc2ccc(-c3ccc(C)cc3)cc2)C(=O)C2CCCCC2)c1 [Compound 235]
	1.48	excellent activity	COC(=O)/C=C/c1cccc(N(Cc2ccc(-c3ccc(C)cc3)cc2)C(=O)C(C)C)c1 [Compound 236]
	0.80		COC(=O)/C=C/c1cccc(N(Cc2ccc(-c3ccc(C)cc3)cc2)C(=O)NC(C)C)c1 [Compound 237]
	1.43	excellent activity	COC(=O)/C=C/c1cccc(N(Cc2ccc(-c3cccc(C)c3)cc2)C(=O)C2CCCCC2)c1 [Compound 238]
	1.09		COC(=O)/C=C/c1cccc(N(Cc2ccc(-c3cccc(C)c3)cc2)C(=O)C(C)C)c1 [Compound 239]
	0.53		COC(=O)/C=C/c1cccc(N(Cc2ccc(-c3cccc(C)c3)cc2)C(=O)NC(C)C)c1 [Compound 240]
	1.16		COC(=O)/C=C/c1cccc(N(Cc2ccc(-c3cc(Cl)ccc3OC)cc2)C(=O)C2CCCCC2)c1 [Compound 241]
	0.79		COC(=O)/C=C/c1cccc(N(Cc2ccc(-c3cc(Cl)ccc3OC)cc2)C(=O)C(C)C)c1 [Compound 242]
	0.17		COC(=O)/C=C/c1cccc(N(Cc2ccc(-c3cc(Cl)ccc3OC)cc2)C(=O)NC(C)C)c1 [Compound 243]
	1.25	excellent activity	COC(=O)/C=C/c1cccc(N(Cc2ccc(-c3ccc4c(c3)OCO4)cc2)C(=O)C(C)C)c1 [Compound 245]
	1.51	excellent activity	COC(=O)/C=C/c1cccc(N(Cc2ccc(-c3ccc4c(c3)OCO4)cc2)C(=O)NC(C)C)c1 [Compound 246]
	1.87	excellent activity	COC(=O)/C=C/c1cccc(N(Cc2ccc(-c3ccc(F)c(Cl)c3)cc2)C(=O)C2CCCCC2)c1 [Compound 247]
	1.64		COC(=O)/C=C/c1cccc(N(Cc2ccc(-c3ccc(F)c(Cl)c3)cc2)C(=O)C(C)C)c1 [Compound 248]
	0.41		COC(=O)/C=C/c1cccc(N(Cc2ccc(-c3ccc(F)c(Cl)c3)cc2)C(=O)NC(C)C)c1 [Compound 249]
	1.04		COC(=O)/C=C/c1cccc(N(Cc2ccc(-c3ccc(OC(F)(F)F)cc3)cc2)C(=O)C2CCCCC2)c1 [Compound 250]
	0.78		COC(=O)/C=C/c1cccc(N(Cc2ccc(-c3ccc(OC(F)(F)F)cc3)cc2)C(=O)C(C)C)c1 [Compound 251]
	0.21		COC(=O)/C=C/c1cccc(N(Cc2ccc(-c3ccc(OC(F)(F)F)cc3)cc2)C(=O)NC(C)C)c1 [Compound 252]
	0.84		COC(=O)/C=C/c1cccc(N(Cc2ccc(-c3cccc(OC(F)(F)F)c3)cc2)C(=O)C2CCCCC2)c1 [Compound 253]
	0.69		COC(=O)/C=C/c1cccc(N(Cc2ccc(-c3cccc(OC(F)(F)F)c3)cc2)C(=O)C(C)C)c1 [Compound 254]
	0.09		COC(=O)/C=C/c1cccc(N(Cc2ccc(-c3cccc(OC(F)(F)F)c3)cc2)C(=O)NC(C)C)c1 [Compound 255]
	0.12	excellent activity	COC(=O)/C=C/c1cccc(N(Cc2ccc(-c3c(OC)cccc3OC)cc2)C(=O)C2CCCCC2)c1 [Compound 256]
	0.10	excellent activity	COC(=O)/C=C/c1cccc(N(Cc2ccc(-c3c(OC)cccc3OC)cc2)C(=O)C(C)C)c1 [Compound 257]
	0.10		COC(=O)/C=C/c1cccc(N(Cc2ccc(-c3c(OC)cccc3OC)cc2)C(=O)NC(C)C)c1 [Compound 258]
	1.07	excellent activity	COC(=O)/C=C/c1cccc(N(Cc2ccc(-c3ccc(N(C)C)cc3)cc2)C(=O)C(C)C)c1 [Compound 260]

From patent US7671085B2, “Non-steroidal farnesoid X receptor modulators and methods for the use thereof” (The Salk Institute for Biological Studies, priority 2002, dated 2010)
